# According to US20260315564A1, “THE USE OF TP3 (THYMOPENTIN ANALOG) BY INCREASING THE ACTIVITY AND NUMBER OF T-CELLS INVOLVED IN THE DEFENSE MECHANISM OF THE IMMUNE SYSTEM OF MAMMALS, FOR THE PREVENTION OR TREATMENT OF DISEASES TO EXTEND THE AVERAGE LIFESPAN” (priority 2023, published 2026):
# Marks after values point to notes of the source that are not given here. Residues, ends and D or L forms follow the SMILES beside them.
# Legend:
# [1] = system: PFC; test: PFC cell count in aged mice; assay type: in vivo, aged mice (Balb/c); conditions: first value column under head 'PFC IgM/logx^2'; aged mice 18 months old; n = 8/group; young control 6.3, aged 3.7
# Protocol: 1.3./Determination of the number of plaque-forming cells (PFC) (using rat spleen cells) The chopped splenocytes were placed in a culture medium (Parker 199) and then shaken with a shaker for 1 minute. The cells were suctioned from the surface of the rapidly settling tissue debris. Red blood cells were removed osmotically. Cell suspensions were adjusted to 107/ml. The cell suspensions were mixed with a 15% BVVT cell suspension in a ratio of 2:1. PFC was determined with the mixture using a modified chamber technique according to Channingham et al., 1966). Before filling the chamber, 50 μl of fresh diluted guinea pig serum (1:20) was added. The chambers (2-2/slide) were incubated (370C 45′) after sealing with paraffin, the formed plaques were counted under a microscope (at 400× magnification) within 2 hours Marker tests related to the rejection reaction of an adult thymus-depleted mouse skin graft 1.4./Rejection of skin transplants in nude mice after treatment with TP fragments (Snell et al., Transplantation 5, 492, 1967).
# TP effect on antibody production and PFC cell count in aged mice (Balb/c)
# [2] = system: Antibody production (immunized with BVVT); test: Antibody production (anti-BVVT titer) in Balb/c nu/nu mice; assay type: in vivo; conditions: ip, n = 10/group, control < 3.0
# Protocol: (§1) Rats (Hannover Wistar) were treated (i.p.) within 6-12 hours after birth. Treatments after birth in a single session or in another examination • on the 7th day after the first treatment; • another group was vaccinated 3 times a week after the first day of treatment. • in a subsequent group, the treatments took place over three weeks (9× in total) (10-3,10-5,10-7//10-9, 10-11,10-12,10-13 M/animal, i.p.). • in the fourth test series, the animals were treated with TP fragments at 0, 1, 2, 4, or 5 days of age. The rats were randomly immunized on the 14th day after birth (1% BVVT with 0.5 ml cell suspension, i.p.). Immune responses were measured after 7 days on day 21 of the experiment. 1.2. Determination of anti-BVVT Ab titers (from rat blood samples ex vivo) • with the haemagglutination method (Takátsy and Fürész, 1955) on 96-well plates (Flow). 50 ul of 0.9% NaCl solution was added to each well. The sera (50 μl) were diluted by half dilution in 12 steps, mixed with 25 pμl 2% BVVT cell suspension, and incubated (1 hour at 37 °C). The hemagglutination titers of the sera are determined. Values expressed in logarithmic values refer to total agglutination.
# Mice were treated for 4 weeks 3 times a week (every other day) with TP fragments (10-9, 10-8, 10-7//10-3, 10-2, 10-1 M/animal ip. (Veys et al., 1983) at the end of the treatments ([…]), the mice were immunized (with 0.5 ml 1% BVVT suspension ip. The immune response was expressed in antibody titers as above).
# [3] = system: Anti-SRBC-Ab (IgM); test: Anti-SRBC-Ab titer (IgM) in newborn rats after 9x treatment (hemagglutination); assay type: in vivo, Hannover Wistar rats (newborn); conditions: 9x (3x3 weeks/ip), n = 12, control 6.3 (TP5), 5.2 (TP3)
# Protocol: Rats (Hannover Wistar) were treated (i.p.) within 6-12 hours after birth. Treatments after birth in a single session or in another examination • on the 7th day after the first treatment; • another group was vaccinated 3 times a week after the first day of […]. treatment • in a subsequent group treated over three weeks (9× in total) (10-3,10-5,10-7//10-9, 10-11,10-12, 10-13 M/animal, i.p). • in the fourth test series, the animals were treated with TP fragments at 0, 1, 2, 4, or 5 days of age. The rats were unanimously immunized on the 14th day after birth (1% BVVT with 0.5 ml cell suspension, i.p.). Immune responses were measured after 7 days on day 21 of the experiment.
# as §1
# [4] = system: Active E-rosette forming cells (human lymphocytes); test: Active E-rosette forming cells; assay type: cell-based; conditions: control 6.3 (TP5), 5.2 (TP3)
# Protocol: The test was carried out according to the method of (Wybran and Fundenberg 1973). 107/ml lymphocytes from either healthy blood donors or autoimmune patients were included in the tests. The effect of the substances was tested in the presence of 100 μl of […]. test compound. After an incubation period, 100 μul of cell suspension was placed on a glass slide, fixed for 3 minutes (with 50 μl of 3% glutaraldehyde solution), and stored in a humid chamber until evaluation.
# [5] = system: tumour patients (metastatic melanoma); conditions: 26 studies, 2,736 patients, in words, cited from earlier work
# [6] = system: Thy 1+, Lyt 1+, Lyt 2+ spleen cells; test: Spleen cell subpopulations (Thy 1, Lyt 1, Lyt 2) in adult thymus-removed (Tx) mice; assay type: in vivo, C57BL mice (adult thymectomized); conditions: male, 1.0 mg/kg/ip, n = 8/group
# Protocol: • D.1/Direct cytotoxicity test/for the detection of Thy, Lyt antigens (Fathman 1979, in Immunol Meth I. Eds. Lefkovits, Pernis, Acad Press, New York, pp. 212-213.) was used. Subpopulation ratios were determined from bone marrow cells, thymus, and spleen cells isolated from the lymphatic organs of mice. The cell suspensions (1.087-1.088 g/cm3) were centrifuged ona density gradient (2000 rpm, 20 minutes), and the cells were washed 3× with RPMI1640 medium containing 0.3% BSA, then adjusted to 107/ml. Thyl, Lyt 1, Lyt2 monoclonal antibodies (McAb/Ando I. (ICRF Human Tumor Immunol. UCM Med Sch. London) were obtained. 25 μl McAb and 25 ul cell suspension were incubated (60′, 40C1), after centrifugation (1250 rpm 10′), the cells were resuspended with 40 μul of diluted (1:50) rabbit complement, then incubated (370C, 60′). The cell suspensions were stained with 1:5 dilution of Eosin Y (Jansen). the ratio of live to non-living cells was determined.
# After thymectomy, mice were treated with doses of 1 mg/kg, i.p. once a week for six weeks. Thy 1+, Lyt1+, and Lyt2+ in the spleen cells of mice at the age of 13 weeks cell proportions were determined based on what was previously described.
smiles,measurement,setting,value
CC(C)[C@H](NC(=O)[C@H](CC(=O)O)NC(=O)[C@H](CCCCN)NC(=O)[C@@H](N)CCCN=C(N)N)C(=O)N[C@@H](Cc1ccc(O)cc1)C(=O)O [TP5] (H-RKDVY-OH),PFC,[1],6.1*
same,antibody production (titer),[2]; 10^-2 M/mouse (M/eger),26.4 **
same,antibody production (titer),[2]; 10^-3 M/mouse (M/eger),19.8
same,antibody production (titer),[2]; 10^-4 M/mouse (M/eger),11.9
same,antibody production (titer),[2]; 10^-7 M/mouse (M/eger),24.6 **
same,antibody production (titer),[2]; 10^-8 M/mouse (M/eger),19.9 *
same,antibody production (titer),[2]; 10^-9 M/mouse (M/eger),14.5
same,Anti-SRBC-Ab titer (IgM),[3]; 10^-3 M/animal,7.3 2 log
same,Anti-SRBC-Ab titer (IgM),[3]; 10^-4 M/animal,8.2* 2 log
same,Anti-SRBC-Ab titer (IgM),[3]; 10^-5 M/animal,8.6* 2 log
same,Anti-SRBC-Ab titer (IgM),[3]; 10^-6 M/animal,7.5 2 log
same,Anti-SRBC-Ab titer (IgM),[3]; 10^-9 M/animal,7.2 2 log
same,Anti-SRBC-Ab titer (IgM),[3]; 10^-11 M/animal,10.7* 2 log
same,Anti-SRBC-Ab titer (IgM),[3]; 10^-13 M/animal,7.9* 2 log
same,Active E-rosette forming cells,[4]; 10^-5 mol/l,8.6*
same,Active E-rosette forming cells,[4]; 10^-7 mol/l,7.5
same,Active E-rosette forming cells,[4]; 10^-9 mol/l,7.2
same,Active E-rosette forming cells,[4]; 10^-11 mol/l,10.7*
same,Active E-rosette forming cells,[4]; 10^-13 mol/l,7.9*
same,severe infections,[5]; in parallel with radiation or chemotherapy,promising results in reducing severe infections
same,number of survivors,[5],not significantly affected
same,Lyt1/Lyt2,"[6]; control 1.77, Tx 1.96",1.63
same,Lyt 2 spleen cells,"[6]; control 13.7, Tx 9.6",14.2* %
same,Lyt 1 spleen cells,"[6]; control 24.3, Tx 18.8",23.2* %
same,Thy 1 spleen cells,"[6]; control 30.1, Tx 8.1",21.2%
